Where no end group is shown, it is not given here.
Tests used:
[1] = test system: differentiated HL60 cells; test: Arachidonic acid (AA) release in [3H]AA-labeled dHL60 cells; type: cell-based, human
Protocol: (§1) U937 (human histiocytic lymphoma cells), HL60 (human promyelocytic leukemia cells), Raw 264.7 (mouse macrophage), Jurkat (human acute T cell leukemia), PC12 (rat adrenal pheochromocytoma cells), 3Y1 (Rat embryonic fibroblasts), 3T3L1 (preadipocytes), and NCI-H292 (human mucoepidermoid pulmonary carcinoma cells) were obtained from the American Type Culture Collection (Rockville, Md.) and maintained as recommended. FPR- or FPRL1 expressing RBL-2H3 cells were cultured as described previously (He et al. J. Immunol. 2000. 165: 4598-4605). Cells were maintained at about 1×10^6 cells/ml under standard incubator conditions (humidified atmosphere, 95% air, 5% CO2, at 37° C.). HL60 cells were induced to differentiate into the granulocyte phenotype by adding dimethylsulfoxide (DMSO) (final concentration 1.25%, v/v) for 4 days to the culture medium, as described previously (Itoh et al. Blood. 1998. 92: 1432-1441).
For the initial screening of the PS-SPCLs, we measured the AA release stimulating activity of each peptide pool. Cultured dHL60 cells (10^7 cells/ml) were pre-labeled with 0.5 μCi/ml of (^3H)-AA in RPMI 1640 medium containing 10% FBS for 90 min at 37° C. in a humidified incubator supplied with 95% air and 5% CO2, as described previously (Bae et al. J. Immunol. 2000. 164: 4089-4096). The labeled cells were then washed twice with serum-free RPMI 1640 and incubated in RPMI 1640 medium containing 0.1% fatty acid-free BSA for 15 min at 37° C. After discarding the medium, the cells were stimulated with various concentrations of peptide for the indicated times. Radioactivity in the medium and of collected cells was determined with a liquid scintillation counter. When investigating the effects of inhibitors, cells were preincubated with the indicated concentrations of each inhibitor or vehicle for 15 min prior to stimulation.

[2] = test system: differentiated HL60 cells; test: [Ca2+]i increase in fura-2 loaded dHL60 cells; type: cell-based, human
Protocol: as §1
(§2) The level of [Ca^2+]i was determined using Grynkiewicz's method using fura-2/AM (Grynkiewicz et al. J. Biol. Chem. 1985. 260: 3440-3550). Briefly, prepared cells were incubated with 3 μM of fura-2/AM at 37° C. for 50 min in serum-free RPMI 1640 medium under continuous stirring. 2×10^6 cells were aliquoted for each assay in Ca^2+ free Locke's solution (154 mM NaCl, 5.6 mM KCl, 1.2 mM MgCl2, 5 mM HEPES, pH 7.3, 10 mM glucose, and 0.2 mM EGTA). Fluorescence changes were measured at the dual excitation wavelength of 340 nm and 380 nm, and the calculated fluorescence ratio was translated into [Ca^2+]i.

human neutrophils [3] = test: Superoxide generation (cytochrome c reduction) in human neutrophils; type: cell-based; conditions: 1 μM of peptide, cytochrome c reduction
Protocol: Peripheral blood leukocyte concentrates were donated by the Ulsan Red Cross Blood Center (Ulsan, Korea). PBMCs were separated on a Histopaque-1077 gradient. After two washings with HBSS without Ca^2+ and Mg^2+, the PBMCs were suspended in 10% FBS containing RPMI and incubated for 60 min at 37° C. to let the monocytes attach to the culture dish. Cells were washed 5 times with warmed RPMI medium to remove lymphocytes, and then the attached monocytes were collected, as described previously (Bae et al. J. Leukoc. Biol. 1999. 65: 241-248). Human neutrophils were isolated according to standard procedures; i.e., dextran sedimentation, hypotonic lysis of erythrocytes, and using a medium lymphocyte separation gradient, as described previously (Seo et al. J. Immunol. 1997. 158: 1895-1901). Isolated human leukocytes were then used promptly.
We determined superoxide anion generation by measuring cytochrome c reduction using a microtiter 96 well plate ELISA reader (Bio-Tekinstruments, EL312e, Winooski, Vt.) as described previously (Bae et al. Blood. 2001. 97: 2854-2862). Human neutrophils (1×10^6 cells/100 μl of RPMI 1640 medium per well of a 96-well plate) were preincubated with 50 μM of cytochrome c at 37° C. for 1 min and then incubated with the indicated peptide concentrations. Superoxide generation was determined from change in light absorption at 550 nm over 5 minutes at 1 min intervals.

FPRL1 = biological target: T1, FPRL1 (Homo sapiens, UniProt P25090); test: [Ca2+]i increase in FPRL1-expressing RBL-2H3 cells; type: cell-based; conditions: 10 μM of each peptide (FIG. 7)
T1 construct: expressed in transfected cells; host or cells: RBL-2H3
T1 sequence (P25090 1-351): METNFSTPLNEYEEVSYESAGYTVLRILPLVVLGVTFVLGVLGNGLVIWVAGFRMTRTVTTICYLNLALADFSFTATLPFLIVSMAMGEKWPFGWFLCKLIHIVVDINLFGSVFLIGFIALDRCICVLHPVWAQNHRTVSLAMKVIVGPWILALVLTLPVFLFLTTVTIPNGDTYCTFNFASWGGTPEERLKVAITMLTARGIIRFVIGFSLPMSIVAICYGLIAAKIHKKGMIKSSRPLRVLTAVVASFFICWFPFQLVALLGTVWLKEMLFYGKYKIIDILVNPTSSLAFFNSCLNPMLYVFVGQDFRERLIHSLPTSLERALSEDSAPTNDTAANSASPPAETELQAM
Protocol: as §1, §2

FPR = biological target: T2, FPR (Homo sapiens, UniProt P21462); test: [Ca2+]i increase in FPR-expressing RBL-2H3 cells; type: cell-based; conditions: data not shown
T2 construct: expressed in transfected cells; host or cells: RBL-2H3
T2 sequence (P21462 1-350): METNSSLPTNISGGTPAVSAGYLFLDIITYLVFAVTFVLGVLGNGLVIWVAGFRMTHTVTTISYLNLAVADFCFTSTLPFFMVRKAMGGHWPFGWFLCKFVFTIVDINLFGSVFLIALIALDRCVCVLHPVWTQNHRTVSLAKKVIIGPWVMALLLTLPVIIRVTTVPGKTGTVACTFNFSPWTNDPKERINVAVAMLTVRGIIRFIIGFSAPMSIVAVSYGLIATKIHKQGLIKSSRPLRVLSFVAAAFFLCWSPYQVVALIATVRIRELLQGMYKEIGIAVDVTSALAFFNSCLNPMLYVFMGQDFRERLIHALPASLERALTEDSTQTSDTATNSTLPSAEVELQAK
Protocol: as §1, §2

[4] = test system: undifferentiated HL60 cells; test: [Ca2+]i increase in undifferentiated HL60 cells; type: cell-based, human
Protocol: as §1, §2

ERK = ERK phosphorylation in dHL60 cells (anti-phospho-ERK immunoblot); type: cell-based, human
Protocol: Each sample (30 μg of protein) was subjected to 8% SDS-PAGE, and phosphorylated ERK was quantified by immunoblot analysis with anti-phospho-ERK antibody. The results shown are from a single experiment representative of at least three independent experiments.
Extracellular signal regulated protein kinase (ERK) is a well-known intracellular enzyme that mediates diverse cellular responses (Sugden et al. Cell Signal. 1997. 9: 337-351). […] To compare the intracellular signaling involving these 4 peptides, dHL60 cells were pretreated either with LY294002 (50 μM), GF109203X (5 μM), or PD98059 (50 μM) or left untreated as a control. After being incubated for the indicated periods (15 minutes for LY294002 and GF109203X, 60 minutes for PD98059), the cells were stimulated with 1 μM of each peptide for 5 minutes.

human neutrophils [5] = test: Chemotaxis assay (modified Boyden chamber), neutrophils; type: cell-based; conditions: concentrations less than 10 μM
Protocol: (§3) FIGS. 6A and 6B show chemotactic effect of peptides. Assays were performed using a modified Boyden chamber assay, as described in the Examples. Isolated human neutrophils (A) or monocytes (B) (1×10^6 cells/ml in serum free RPMI) were added to the upper wells of a 96-well chemotaxis chamber and migration across a 3 μm pore size (5 μm for monocytes) polycarbonate membrane was assessed after 2 hrs incubation at 37° C. The numbers of migrated cells were determined by counting them in a high power field (400×). Results are presented as means±S.E. of three independent experiments each performed in duplicate.
Chemotaxis assays were performed using multiwell chambers (Neuroprobe Inc., Gaithersburg, Md.) (Bae et al. Blood. 2001. 97: 2854-2862). Briefly, prepared human monocytes were suspended in RPMI at a concentration of 1×10^6 cells/ml, and 25 μl of the suspension was then placed onto the upper well of a chamber separated by a 5 μm polyhydrocarbon filter (3 μm pores size not polyvinylpyrrolidone coated, as is needed for neutrophils) from peptides or N-formyl-methionyl-leucyl-phenylalanine (fMLF) in the lower well. […] Stained cells were counted in five randomly chosen high power fields (HPF) (400×) (Bae et al. Blood. 2001. 97: 2854-2862).

human monocytes = test: Chemotaxis assay (modified Boyden chamber), monocytes; type: cell-based; conditions: FIG. 6B; control peptide at concentrations less than 10 μM
Protocol: as §3
Chemotaxis assays were performed using multiwell chambers (Neuroprobe Inc., Gaithersburg, Md.) (Bae et al. Blood. 2001. 97: 2854-2862). Briefly, prepared human monocytes were suspended in RPMI at a concentration of 1×10^6 cells/ml, and 25 μl of the suspension was then placed onto the upper well of a chamber separated by a 5 μm polyhydrocarbon filter (3 μm pores size not polyvinylpyrrolidone coated, as is needed for neutrophils) from peptides or N-formyl-methionyl-leucyl-phenylalanine (fMLF) in the lower well. After incubation for 2 hours (90 minutes for neutrophils) at 37° C., non-migrated cells were removed by scraping, and cells that migrated across the filter were dehydrated, fixed, and stained with hematoxylin (Sigma, St. Louis, Mo.). Stained cells were counted in five randomly chosen high power fields (HPF) (400×) (Bae et al. Blood. 2001. 97: 2854-2862).

With RKYYYM-NH2 [Peptide P18] the “AA release stimulating activity (in words)” value ([1]; dHL60 cells, 10 μM) was “most potent”, the “Effect of cPLA2-specific inhibitors AACOCF3 and MAFP on peptide-induced AA release” value ([1]; dHL60 cells, inhibitor pretreatment 15 min, 1 μM peptide) was “blocked” and the “Folds of increase (% of total), arachidonic acid release” value ([1]; differentiated HL60 cells, 10 μM of peptide) was 2.61 ± 0.295 folds. The “Concentration of maximal activity, [Ca^2+]i increase” value ([2]; dHL60 cells, data not shown) was “approximately 3 μM”, the “[Ca^2+]i” value ([2]; differentiated HL60 cells, fura-2, 1 μM of peptide) was 150 ± 14.5 nM and the Superoxide production (human neutrophils [3]) was 28.4 ± 3.21 nmole/10^6 cells. For the same substance, the “[Ca^2+]i increase in FPRL1-expressing RBL-2H3 cells” value (FPRL1) was “induced calcium increase”, the “[Ca^2+]i in FPR-expressing RBL-2H3 cells / ligand for FPR” value (FPR) was “not for FPR” and the “[Ca^2+]i increase in undifferentiated HL60 cells” value ([4]; peptides 10 μM (FIG. 8)) was “dramatically induced”. For the same substance, the “Effect of PTX on peptide-stimulated calcium signaling” value ([4]; undifferentiated HL60 cells, data not shown) was “partially inhibited”, the “Phosphorylation level of ERK” value (ERK; dHL60 cells (FIG. 9)) was “dramatic increase” and the “Effect of GF109203X (PKC) on peptide-induced ERK phosphorylation” value (ERK; dHL60 cells, GF109203X (5 μM) 15 minutes, 1 μM peptide 5 minutes) was “completely blocked”. The “Effect of LY294002 (PI3K) on peptide-induced ERK phosphorylation” value (ERK; dHL60 cells, LY294002 (50 μM) 15 minutes, 1 μM peptide 5 minutes) was “not by LY294002”, the “Effect of PD98059 (MEK) on peptide-induced ERK phosphorylation” value (ERK; dHL60 cells, PD98059 (50 μM) 60 minutes, 1 μM peptide 5 minutes) was “partially blocked” and the “Time of maximal ERK activation after stimulation” value (ERK; dHL60 cells, data not shown) was 5 min.
LFMYHP [reference compound] was tested, and the “Cellular chemotaxis in neutrophils (in words)” value (human neutrophils [5]) was “did not induce”, the “Cellular chemotaxis in human monocytes (in words)” value (human monocytes) was “did not induce” and the “[Ca^2+]i increase in FPRL1-expressing RBL-2H3 cells” value (FPRL1) was “not to be able to induce calcium increase”.

— patent publication US7622551B2, “Leukocyte stimulating peptides” (POSCO, priority 2004, dated 2009)
